In one data set the test system is HIV-1. The conditions noted are these: treatment period of 10-14 days, dose-dependent; cited from earlier work.
The subject of data set [1] is HIV-1JR-FL envelope-mediated membrane fusion (HeLa-EnvJRFL and CEM NKR-CCR5 cells). Kind of data set: cell-based. The conditions noted are these: 1st inhibitor alone (Table 13). As to the method: (§1) The HIV-1 RET assay has been described in detail previously (Litwin et al., 1996). Briefly, fluorescein octadecyl ester (F18; Molecular Probes, Eugene, Oreg.; 5 mg/ml in ethanol), was diluted 1:800 in DMEM labeling medium (DMEM; Invitrogen, Carlsbad, Calif.) with 10% fetal bovine serum (FBS; HyClone, Logan, Utah) and adjusted to an A506 of 0.34±10%. Octadecyl rhodamine B chloride (R18; Molecular Probes; 10 mg/ml in ethanol) was diluted 1:2050 in labeling medium and adjusted to an A565 of 0.52±10%. Both dyes were further diluted 2-fold by addition to cells in T75-cm^2 flasks. HeLa-EnvJRFL and CEM NKR-CCR5 cells were incubated overnight in F18- and R18-containing culture medium, respectively. The following day, medium from HeLa-EnvJRFL cells was removed and 10 ml of 0.5 mM EDTA was added and incubated at 37° C. for 5 min. EDTA was removed and the flask was returned to the incubator for another 5 min followed by striking of the flask to dislodge cells. […] Suspension CEM NKR-CCR5 cells were added directly to a separate 50-ml conical centrifuge tube. Both cell lines were centrifuged at 300×g for 5 min. The supernatant was discarded and cells were resuspended in 10 ml of PBS-/15% FBS. The centrifugation/wash step was repeated twice, after which the cells were counted and concentrations adjusted to 1.5×10^6 cells/ml. Ten μl of each cell type (15,000 cells) were seeded into wells of a 384-well plate. Inhibitor compounds were added immediately thereafter to bring the final well volume to 40 μl, and the plates were incubated for 4 h at 37° C. Compounds were tested individually and in combination at a fixed molar ratio or mass ratio over a range of serial dilutions. The plates were then read on a fluorescence plate reader (Victor^2, Perkin Elmer, Boston, Mass.) using the excitation/emission filter combinations shown in Table 6.
(§2) The “% RET” was calculated according to the following formula after subtraction of background (blank) readings: […]
(§3) The “% Inhibition” was calculated according to the following formula: […]
(§4) Fifty percent inhibition (IC50) values were determined by fitting the inhibition data with a non-linear, four-parameter, variable slope equation (GraphPad Prism, 4.02; GraphPad Software, San Diego, Calif.). Upper and lower inhibition values were constrained to 100% and 0%, respectively for curve fitting.
(§5) For testing, small molecule compounds were solubilized in dimethylsulfoxide (DMSO) to 10 mM and then diluted in DMSO to 200× the final concentration to be utilized in the antiviral assay. Serial dilutions of small molecules were conducted in DMSO. Subsequent dilutions were conducted in medium to achieve a final DMSO concentration in the assay of 0.5%. Peptides and mAbs were diluted in PBS in the absence of DMSO.
(§6) HeLa cells were engineered to express HIV-1 gp120/gp41 from the macrophage-tropic primary isolate JRFL as described (HeLa-EnvJRFL; Litwin et al., 1996). Briefly, the HIV-1LAI Env gene was excised from the plasmid pMA243 (Dragic et al., 1992) and the HIV-1JRFL Env gene was inserted. The HIV-1JRFL Env gene was amplified from the plasmid pUCFL112-1 (Koyanagi et al., 1987). The resulting plasmid, designated JR-FL-pMA243, was sequenced by standard methods and transfected into HeLa cells using lipofectin (Gibco BRL/Invitrogen, Carlsbad, Calif.). HeLa-EnvJRFL transfectants were selected in methotrexate (Sigma, St. Louis, Mo.) and cloned twice by limiting dilution. The transduced human T cell leukemia line CEM NKR-CCR5 cells were obtained from the NIH AIDS Research and Reference Program (Cat. No. 458).
(§7) The HIV-1 RET assay has been described in detail previously (Litwin et al., 1996). Briefly, fluorescein octadecyl ester (F18; Molecular Probes, Eugene, Oreg.; 5 mg/ml in ethanol), was diluted 1:800 in DMEM labeling medium (DMEM; Invitrogen, Carlsbad, Calif.) with 10% fetal bovine serum (FBS; HyClone, Logan, Utah) and adjusted to an A506 of 0.34±10%.

Data set [2] has as its system reporter viruses pseudotyped with HIV-1JR-FL envelope. Type of data set: cell-based. The following applies: for CI50 / CI90: labelled 1st inhibitor with 2nd inhibitor PRO 140, envelope JRFL, equimolar (1:10 PRO 140 to zidovudine or nevirapine); for inhibition of HIV-1 pseudovirus entry: result in words, data not shown. The arrangement: CI90: unit not given beside the values. The text has this: HIV-1 pseudoparticles (HIV-1pp) are generated in 293T cells by transient coexpression of an HIV-1-based NL4/3luc+env− plasmid and a construct encoding HIV-1JRFL Env. The NL4/3luc+env− plasmid was obtained from the NIH AIDS Research and Reference Reagent Program (Cat. No. 3418), and the HIV-1JRFL Env was inserted into the pcDNA3.1 vector (Invitrogen). Briefly, 293T cells are calcium phosphate transfected with a 1:1 ratio of NL4/3luc+env− reporter vector and Env expression vector in Hepes buffer (Profection Mammalian Transfection Kit, Promega). After 16 h the transfection medium is aspirated and fresh cell culture medium (DMEM with 10% FBS, glutamine and antibiotics) is added and the incubation is continued at 37° C. for an additional 24-32 h. Cell culture supernatants are collected 48 h post-transfection and centrifuged at 1,400 rpm for 10 min to pellet cell debris. The viral supernatant is brought to a final concentration of 5% sucrose and stored aliquoted at −80° C.
U87-CD4-CCR5 cells were obtained from the NIH AIDS Research and Reference Program (Cat. No. 4035). These cells are maintained in culture medium (DMEM with 10% FBS, antibiotics and glutamine) containing 0.3 mg/ml G418 and 0.5 mg/ml puromycin. Cells are grown in T175-cm^2 flasks at 37° C. and diluted 1:5 every 3-4 days. For assay plate preparation, cells are trypsinized and seeded into wells of 96-well tissue-culture treated flat bottom opaque polystyrene plates (Perkin Elmer, Boston, Mass.) at a density of 3×10^3 cells/well. Plates are incubated for no more than 4 h at 37° C. in a humidified 5% CO2 incubator prior to their use in the HIV-1 pp susceptibility assay.
Fifty μl of diluted compound at 4× the desired final concentration are added per well. For compounds solubilized in DMSO, the 4× stock will contain 2% DMSO (such that the final DMSO concentration in the assay is always 0.5% for small molecules). Control wells receiving no compound are included on each plate. In addition, an AZT inhibition control is included in each assay. Compounds are tested individually and at a fixed mass or molar ratio over a broad range of concentrations.
A vial of frozen, aliquoted HIV-1pp is thawed in a 37° C. waterbath and then placed on wet ice. Virus is diluted in cold cell culture medium as necessary to achieve the desired final virus concentration in the HIV-1pp assay (about 10,000 relative light units (rlu) per well). 50 μl of diluted virus are added per well, bringing the final well volume to 200 μl. A no-virus control (minimum or background luminescence) and a no-compound control (maximum luminescence) are included on each plate. The plates are incubated for 72 h at 37° C. in a humidified 5% CO2 incubator followed by processing for luciferase signal (see below).
Assay medium is aspirated and 200 μl of PBS are added to each well. […] Assay plates are then frozen for at least 2 h at −80° C. followed by thawing at room temperature and vigorous mixing with an electronic pipettor. 25 μl from each well are transferred to an opaque 96-well plate (Costar #3922). Four replicates are pooled into the same well on the opaque plate. 100 μl of freshly thawed and reconstituted luciferase substrate (Luciferase Assay System, Promega—Cat. No. E1501) are added to each well of the plate with the electronic pipettor, and luminescence is detected immediately on a Dynex MLX plate reader set to medium gain.
The percent inhibition is derived as follows: [1−(luciferase activity in the presence of drug/luciferase activity in the absence of drug)]×100. IC50 values are determined by fitting the inhibition data with a non-linear, four-parameter, variable slope equation (GraphPad Prism, ver. 4.02; GraphPad Software, San Diego, Calif.). Upper and lower inhibition values are constrained to 100% and 0%, respectively for curve fitting. […]

Data set [3] relates to reporter viruses pseudotyped with HIV-1SF162 envelope. The data set is classed as cell-based. The following applies: labelled 1st inhibitor with 2nd inhibitor PRO 140; envelope SF162; equimolar (1:10 PRO 140 to zidovudine or nevirapine). Also noted: CI90: unit not given beside the values. The text has this: A self-inactivating (SIN) vector was derived from the pNL4-3ΔEnv-luciferase vector (Dragic et al. 1996) by deleting 507 basepairs in the U3 region of the 3′ long terminal repeat (LTR) so as to remove the TATA box and transcription factor binding sites. The human cytomegalovirus promoter was inserted upstream of the luciferase (luc) gene to enable expression of luciferase following integration.
Reporter viruses pseudotyped with HIV-1JR-FL or HIV-1SF162 envelopes were generated by cotransfection of 293T cells with the SIN vector and the appropriate pcDNA env-expressing vector as previously described (Dragic et al. 1996). […] Cultures were incubated for 72 h at 37° C. in DMEM containing 10% fetal bovine serum, 1 mg/mL puromycin, 0.3 mg/mL geneticin, antibiotics, and 0.5% DMSO. Luciferase activity (relative light units or RLU) was measured using BrightGlo reagent (Promega, Madison, Wis.) according to the manufacturer's instructions. Percent inhibition was calculated as: (1−RLU in the presence of inhibitor/RLU in the absence of inhibitor)×100.
Experimental design and data analysis were based on the combination index (CI) method (Chou et al. 1991; Chou et al. 1984). Compounds were tested individually and in combination at a fixed molar ratio over a range of serial dilutions. […] The mutually exclusive CI formula was used for combinations of CCR5 inhibitors, while the mutually non-exclusive formula was utilized for combinations of inhibitors to distinct targets (Chou et al. 1991). Each test was conducted 4-12 times. Synergy, additivity and antagonism are indicated by CI<1, CI=1 and CI>1, respectively.

Data set [4] concerns the target HIV-1JR-FL envelope-mediated membrane fusion (HeLa-EnvJRFL and CEM NKR-CCR5 cells) (Homo sapiens, UniProt P51681). Kind of data set: cell-based. The conditions noted are these: 2D7 in combination with the labelled inhibitor, 1:1 molar ratio. How it is done:
as §1, §2, §3, §4, §5, §6, §7

For data set [5] the following is noted: in vivo, cited from earlier work.
For data set [6] the following is noted: single administration of TAK-652 solution (Baba et al., 2005); cited from earlier work.

Consider 8 compounds from patent US20090074766A1, “Methods of inhibiting HIV-2 infection” (priority 2007, published 2009).

HIV-1JR-FL envelope-mediated membrane fusion (HeLa-EnvJRFL and CEM NKR-CCR5 cells) (Homo sapiens, UniProt P51681), sequence (P51681 whole entry, the tested form may be a part): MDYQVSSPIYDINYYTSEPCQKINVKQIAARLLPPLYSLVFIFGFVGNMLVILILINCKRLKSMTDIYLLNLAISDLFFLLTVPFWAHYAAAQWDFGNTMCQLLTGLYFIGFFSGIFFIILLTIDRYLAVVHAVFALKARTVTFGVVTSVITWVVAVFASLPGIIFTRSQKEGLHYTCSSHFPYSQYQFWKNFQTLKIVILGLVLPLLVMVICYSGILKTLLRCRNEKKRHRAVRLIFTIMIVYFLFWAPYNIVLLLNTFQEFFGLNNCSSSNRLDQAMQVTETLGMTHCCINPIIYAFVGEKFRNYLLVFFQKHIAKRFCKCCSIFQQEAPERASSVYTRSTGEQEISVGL

`CCO/N=C(\c1ccc(Br)cc1)C1CCN(C2(C)CCN(C(=O)c3c(C)cc[n+]([O-])c3C)CC2)CC1` [SCH-C]: the “mean reductions in HIV-1 RNA levels” value in the data set on HIV-1 is reported as approximately 1 log10.

As a reminder, the IC50 is the midpoint of a concentration-inhibition curve. What is called IC90 is the concentration needed for an effect of 90%. For the compound enfuvirtide, in data set [1], the 50% inhibitory concentration (IC50) came out at 8.6 nM and the IC90 turned out to be 66 nM.

As to `Cc1ccnc2c1NC(=O)c1cccnc1N2C1CC1` [nevirapine], the CI50 turned out to be 1.2 ± 0.38 in data set [2] and 1.2 ± 0.34 in data set [3]. Moreover, the CI90 is listed as 0.73 ± 0.28 in data set [2] and 0.63 ± 0.19 in data set [3].

Take “RANTES: CC-chemokine, natural peptide ligand of CCR5, purchased from R&D Systems”: in data set [2], the “inhibition of HIV-1 pseudovirus entry” value was “Neither TAK-779 nor RANTES mediated consistent, high-level inhibition”. In addition, in data set [4], the “Mean Dose Reduction (2D7)” value is listed as 1.94 ± 0.08 and the “Mean Dose Reduction (Cpd in combination)” value is 10.18 ± 1.86.

In data set [2], `Cc1cn([C@H]2C[C@H](N=[N+]=[N-])[C@@H](CO)O2)c(=O)[nH]c1=O` [zidovudine] registered a CI50 of 1.1 ± 0.38 and a CI90 of 0.85 ± 0.26. Besides, in data set [3], the CI50 is 0.99 ± 0.27 and the CI90 is recorded as 1.0 ± 0.38.

As for TAK-779, the “inhibition of HIV-1 pseudovirus entry” value in data set [2] is “Neither TAK-779 nor RANTES mediated consistent, high-level inhibition”. Besides, in data set [5] (po), the oral bioavailability result is reported as “poor oral bioavailability”. In addition, in data set [5], the local tolerability entry is reported as “local injection site irritation”.

Consider `CCCCOCCOc1ccc(-c2ccc3c(c2)/C=C(/C(=O)Nc2ccc([S@@+]([O-])Cc4cncn4CCC)cc2)CCCN3CC(C)C)cc1.CS(=O)(=O)O` [TAK-652], for which the safety and tolerability result in data set [6] is “safe and well tolerated”.

In the case of `CCCCN1C(=O)[C@@H]([C@H](O)C2CCCCC2)NC(=O)C12CCN(Cc1ccc(Oc3ccc(C(=O)O)cc3)cc1)CC2` [GW873140], the “mean reductions in HIV-1 RNA levels” value with HIV-1 is approximately 1 log10.
